Values of other authors in paper PMC9516282, “Low prevalence of influenza A strains with resistance markers in Brazil during 2017–2019 seasons” (Frontiers in Public Health, 2022).

Test system: PA:E199G
Design: method as in PMID 30670144
Settings: virus with PA:E199G substitution

For `COC(=O)OCOc1c2n(ccc1=O)N([C@@H]1c3ccccc3SCc3c1ccc(F)c3F)[C@@H]1COCCN1C2=O` [BXM, baloxavir marboxil], the “RI (reduced inhibition) to BXM” value is given as 4.5 fold.
